How the values were obtained:
[1] = tested on: tumor; assay: tumor growth inhibition in a group administered with the compound (FIG. 1); type: in vivo; conditions: graph of FIG. 1; group administered with Compound 218; no numbers printed in this part
[2] = biological target: PD-1/PD-L1 (Homo sapiens, UniProt Q9NZQ7); assay: TR-FRET PD-1/PD-L1 binding inhibition at the molecular level (free proteins); conditions: Tag1-PD-L1 and Tag2-PD-1 proteins, twelve concentrations from 200 nM, 2 hours at room temperature, read-out: FRET assay (IC50)
PD-1/PD-L1 (Homo sapiens, UniProt Q9NZQ7), sequence (Q9NZQ7 19-238 limits assumed): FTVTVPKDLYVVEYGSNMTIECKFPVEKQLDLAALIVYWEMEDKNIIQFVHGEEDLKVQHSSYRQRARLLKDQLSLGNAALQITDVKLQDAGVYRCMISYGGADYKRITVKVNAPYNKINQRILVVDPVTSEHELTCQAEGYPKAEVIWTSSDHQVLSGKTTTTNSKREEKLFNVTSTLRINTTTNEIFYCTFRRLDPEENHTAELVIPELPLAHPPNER
In short: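 HTRF read-out at 665/620 nm after 2 h at room temperature. Detection used anti-Tag1 Eu cryptate plus anti-Tag2 XL665 antibodies. Tagged PD-L1 and PD-1 proteins were pre-mixed with compound across twelve […] 1:2 dilutions starting at 200 nM.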

[3] = biological target: hPD-L1 (Homo sapiens, UniProt Q9NZQ7); assay: TR-FRET dimerization of hPD-L1 molecules; type: biochemical
hPD-L1, sequence (Q9NZQ7 19-238 limits assumed): as above
hPD-L1, sequence (Q9NZQ7 19-238 limits assumed): as above
Experimental: In order to evaluate the dimerization of hPD-L1 molecules induced by the compounds of the present invention synthesized according to the above Preparation Examples, a TR-FRET (Time-Resolved Fluorescence Energy Transfer) experiment was performed as described below.
Specifically, the compounds were prepared in a 96-well plate by serial dilution starting from 10 µM with 1/3 dilutions to obtain a total of twelve concentrations. Thereafter, 2 µL of each compound solution was added to a 384-well plate. Fc tag-hPD-L1 protein and His tag-hPD-L1 protein were each prepared at a 1x concentration, mixed at a ratio of 1:1 of above two proteins, and 8 µL of the mixed protein solution was added to each well of the 384-well plate containing the compounds, followed by incubation at room temperature for one day. On the following day, Anti-6His-Tb Cryptate Gold antibody and Anti-human IgG-XL665 antibody were each prepared at a 1x concentration, mixed at a ratio of 1:1, and 10 µL of the mixed antibody solution was added to each well of the 384-well plate containing the compounds and proteins, followed by incubation at room temperature for 2 hours. Upon completion of the reaction, fluorescence signals at wavelengths of 620 nm and 665 nm were measured using a microplate reader.

[4] = biological target: T1, PD-L1 expressed on the cell surface (MC38 hPD-L1) (Homo sapiens, UniProt Q9NZQ7); assay: Internalization of cell surface PD-L1, flow cytometry with fluorescent staining; type: cell-based; conditions: MC38 hPD-L1 cells, 1 µM, 4 hours; untreated 90% to 99%
T1 construct: expressed in transfected cells; host or cells: MC38 mouse colon cancer cell line expressing human PD-L1
T1 sequence (Q9NZQ7 19-290): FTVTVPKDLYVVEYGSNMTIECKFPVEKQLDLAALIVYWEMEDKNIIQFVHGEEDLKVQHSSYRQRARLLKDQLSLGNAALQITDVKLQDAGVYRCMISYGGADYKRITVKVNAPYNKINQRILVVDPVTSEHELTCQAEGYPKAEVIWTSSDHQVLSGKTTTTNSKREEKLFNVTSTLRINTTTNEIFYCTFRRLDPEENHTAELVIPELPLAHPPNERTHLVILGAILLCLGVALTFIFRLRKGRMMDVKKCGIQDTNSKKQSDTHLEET
Experimental: In order to evaluate the internalization of cell surface PD-L1 induced by the compounds of the present invention synthesized according to the above Preparation Examples, a flow cytometry experiment using fluorescent staining was conducted as described below.
Specifically, a mouse colon cancer cell line expressing human PD-L1 (MC38 hPD-L1) was seeded into a 24-well plate at a density of 5 x 10^5 cells per well, followed by treatment with Compounds 206 to 227 at a concentration of 1 µM and incubation for 4 hours. After 4 hours, the compound-treated MC38 hPD-L1 cells were collected and stained with PE anti-hPD-L1 fluorecence at room temperature for 30 minutes. The rate of PD-L1 expression on the cell surface was then quantified using flow cytometry.

[5] = tested on: PD-1/PD-L1; assay: PD-1/PD-L1 blockade bioassay at the cellular level (PD-L1 aAPC/CHO-K1 cells + PD-1 Effector T cells, luciferase); type: cell-based; conditions: Homo sapiens, T-cell; PD-L1 aAPC/CHO-K1 cells with PD-1 Effector T cells, 6 hours, luminescence; read-out: PD-1/PD-L1 Inhibitory Activity EC50
Experimental: In order to evaluate the effect of the compounds of the present invention, synthesized according to the above Preparation Examples, on blocking signal transduction between PD-1/PD-L1-expressing cells, a PD-1/PD-L1 blockade bioassay was conducted as described below.
Specifically, PD-L1 aAPC/CHO-K1 cells engineered to express human PD-L1 were seeded into a 96-well white plate and cultured for one day. On the following day, the compounds were prepared in a 96-well plate by serial dilution at concentrations starting from 10 µM and 5 µM, followed by 1/4 dilutions to obtain a total of ten concentrations. The culture medium in the plate seeded with the PD-L1 aAPC/CHO-K1 cell line was removed, and 40 µL of each prepared compound solution was added to a 96-well plate. Thereafter, 40 µL of PD-1 Effector T cell line engineered to express human PD-1 was additionally added, and then cultured for 6 hours. After 6 hours, 80 µL of Bio-Glo luciferase buffer was added to each well, followed by incubation at room temperature for 10 minutes, and luminescence was measured using a microplate reader.

[6] = tested on: MC38 hPD-L1; assay: Tumor growth inhibition in MC38 hPD-L1 subcutaneous mouse model; type: in vivo; conditions: 50 mg/kg intraperitoneally once daily, female C57BL/6 mice
Experimental: In order to evaluate whether the tumor inhibitory effects of the compounds synthesized according to the above Preparation Examples are also effective in vivo, animal experiments were conducted as described below.
A mouse colon cancer cell line expressing human PD-L1 (MC38 hPD-L1) was prepared at a density of 1.25 x 10^6 cells in 100 µL of DPBS and inoculated subcutaneously into the flank of 6-week-old female C57BL/6 mice. When the average tumor volume reached approximately 50 mm^3, the mice were divided into three experimental groups, with eight mice per group. Vehicle and Compound 218 (50 mg/kg) were administered intraperitoneally once daily, while Durvalumab (anti-PD-L1 mAb) was administered intraperitoneally twice per week. Tumor volume and body weight were measured every three days.

With `O=C(O)CN[C@H]1CCCn2nc(C(=O)Nc3cccc(-c4cccc(Nc5nccc6cc(CN7CC[C@@H](O)C7)cnc56)c4Cl)c3Cl)cc21` [Compound 218, 2-(((S)-2-((2,2'-dichloro-3'-((3-(((R)-3-hydroxypyrrolidin-1-yl)methyl)-1,7-naphthyridin-8-yl)amino)-[1,1'-biphenyl]-3-yl)carbamoyl)-4,5,6,7-tetrahydropyrazolo[1,5-a]pyridin-4-yl)amino)acetic acid] as the compound, how does the “tumor growth inhibitory effect” value [1] read?
Its value is “tumor growth inhibitory effect”.

What about the IC50 [2] of the same compound?
Its IC50 is < 10 nM.

What about the EC50 ([3]; Fc tag-hPD-L1 and His tag-hPD-L1, twelve concentrations from 10 µM) of the same compound?
The EC50 was 6.1 nM.

And the “induction of dimerization of hPD-L1 molecules (in words)” value ([3]; summary of Table 3)?
The value was “effectively induced dimerization of hPD-L1 molecules at the nanomolar level”.

What about the “Cell surface PD-L1 expression level (%)” value [4] of the same compound?
Its value is 0.3%.

And the EC50 [5]?
The EC50 was 19.2 nM.

What about the “tumor growth inhibition compared to the vehicle-treated group” value ([6]; Figure 1) of the same compound?
Its value is “significant inhibition of tumor growth”.

What about the “change in body weight of mice” value ([6]; Figure 2) of the same compound?
The value was “no change in body weight”.
